The record followed here is patent US9988400B2 (Genentech, Inc., priority 2013, dated 2018).

As usually defined, the EC50 is the concentration giving half of the maximal effect.

For this assay, the target named is T1, HEK cells stably transfected with tetracycline inducible hNR1 and hNR2A (Homo sapiens, UniProt Q05586+Q12879).
T1 construct: expressed in transfected cells; host or cells: HEK cells, stably transfected, tetracycline/doxycycline inducible
The experiment in a line: Assay 1: Cell-Based Assay, cytosolic calcium response to positive allosteric modulators (with 30 μM glycine and 300 nM L-glutamate, EC30). Conditions: Table 2; for Max %: responses scaled relative to 100 μM L-glutamate maximal response (100%) and 0 μM L-glutamate (0%); for EC50: cytosolic calcium response, with 30 μM glycine and 300 nM L-glutamate (EC30), — = no plateau was reached. A digest of the protocol: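 Cells induced 24 h with 7.5 μg mL^−1 doxycycline plus 500 μM (+)-ketamine, loaded 60 min at 37 °C with calcium dye in Mg-free HBSS (1.8 mM Ca, probenecid, 10 μM (+)-ketamine, pH 7.15). Peak RFU over 5 min after compound addition, scaled to 100 μM L-glutamate (100%) and 0 μM (0%); four-parameter Hill fit for EC50, max % if no plateau.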

T1 sequence (Q12879 23-1464, other chains not shown): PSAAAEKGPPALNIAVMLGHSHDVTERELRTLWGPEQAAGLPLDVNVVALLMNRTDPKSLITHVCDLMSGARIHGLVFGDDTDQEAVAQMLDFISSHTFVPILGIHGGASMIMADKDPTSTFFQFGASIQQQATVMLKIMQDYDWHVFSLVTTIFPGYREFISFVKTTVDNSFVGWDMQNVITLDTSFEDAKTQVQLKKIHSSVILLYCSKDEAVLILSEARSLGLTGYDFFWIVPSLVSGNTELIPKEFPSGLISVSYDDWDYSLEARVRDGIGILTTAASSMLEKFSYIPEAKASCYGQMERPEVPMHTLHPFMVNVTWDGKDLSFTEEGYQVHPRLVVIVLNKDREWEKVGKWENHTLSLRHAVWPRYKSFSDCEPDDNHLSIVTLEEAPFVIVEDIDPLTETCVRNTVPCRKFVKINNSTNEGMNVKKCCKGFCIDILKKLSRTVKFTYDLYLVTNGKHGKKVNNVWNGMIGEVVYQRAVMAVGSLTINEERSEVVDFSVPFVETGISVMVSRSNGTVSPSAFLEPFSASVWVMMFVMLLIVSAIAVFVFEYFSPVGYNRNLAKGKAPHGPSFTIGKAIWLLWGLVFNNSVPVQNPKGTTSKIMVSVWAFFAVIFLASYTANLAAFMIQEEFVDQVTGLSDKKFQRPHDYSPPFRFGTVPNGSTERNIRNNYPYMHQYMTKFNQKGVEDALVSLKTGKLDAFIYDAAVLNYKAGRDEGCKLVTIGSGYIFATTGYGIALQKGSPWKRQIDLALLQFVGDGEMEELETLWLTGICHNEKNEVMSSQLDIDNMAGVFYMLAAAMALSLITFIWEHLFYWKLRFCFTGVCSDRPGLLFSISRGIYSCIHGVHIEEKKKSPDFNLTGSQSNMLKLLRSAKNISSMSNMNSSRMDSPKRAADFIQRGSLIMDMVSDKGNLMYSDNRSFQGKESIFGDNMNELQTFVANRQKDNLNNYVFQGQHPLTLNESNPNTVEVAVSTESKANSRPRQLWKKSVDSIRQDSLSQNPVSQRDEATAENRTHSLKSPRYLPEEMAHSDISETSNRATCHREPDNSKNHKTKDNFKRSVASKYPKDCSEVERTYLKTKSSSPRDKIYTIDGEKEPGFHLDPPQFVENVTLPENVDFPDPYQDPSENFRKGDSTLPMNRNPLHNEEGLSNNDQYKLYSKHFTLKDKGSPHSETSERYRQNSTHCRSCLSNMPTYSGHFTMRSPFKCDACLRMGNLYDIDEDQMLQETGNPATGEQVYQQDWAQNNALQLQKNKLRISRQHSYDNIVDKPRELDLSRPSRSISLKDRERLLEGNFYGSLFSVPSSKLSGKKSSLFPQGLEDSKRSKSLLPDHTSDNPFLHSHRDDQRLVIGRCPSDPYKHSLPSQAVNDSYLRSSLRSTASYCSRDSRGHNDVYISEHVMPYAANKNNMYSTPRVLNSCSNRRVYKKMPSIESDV

Take `Cc1sc2nc(Cn3nccc3C(F)(F)F)cc(=O)n2c1-c1cncnc1` [Example 15.31, 2-methyl-3-(pyrimidin-5-yl)-7-((5-(trifluoromethyl)-1H-pyrazol-1-yl)methyl)-5H-thiazolo[3,2-a]pyrimidin-5-one]: the Max % was 57.8%.

As to `Cc1sc2nc(Cn3nc(C(F)(F)F)cc3C)cc(=O)n2c1-c1cncnc1` [Example 15.32, 2-methyl-7-((5-methyl-3-(trifluoromethyl)-1H-pyrazol-1-yl)methyl)-3-(pyrimidin-5-yl)-5H-thiazolo [3,2-a]pyrimidin-5-one], the Max % was found to be 94.8%.

In the case of `Cc1cn2c(=O)cc(Cn3nc(C(F)(F)F)cc3C(F)(F)F)nc2s1` [Example 15.33, 7-((3,5-bis(trifluoromethyl)-1H-pyrazol-1-yl)methyl)-2-methyl-5H-thiazolo[3,2-a]pyrimidin-5-one], the EC50 was 18.8 µM and the Max % was determined as 51.8%.

With `Cc1sc2nc(Cn3ncc4ccccc43)cc(=O)n2c1-c1cncnc1` [Example 15.34, 7-((1H-indazol-1-yl)methyl)-2-methyl-3-(pyrimidin-5-yl)-5H-thiazolo[3,2-a]pyrimidin-5-one], the Max % was determined as 48.2%.

As to `CNC(=O)c1c(C)sc2nc(Cn3nc(C(F)(F)F)cc3C3CC3)cc(=O)n12` [Example 16.1, 7-((5-cyclopropyl-3-(trifluoromethyl)-1H-pyrazol-1-yl)methyl)-N,2-dimethyl-5-oxo-5H-thiazolo[3,2-a]pyrimidine-3-carboxamide], the half-maximal effective concentration (EC50) is 2.3 µM and the Max % is reported as 140%.

Consider `CNC(=O)c1c(C)sc2nc(Cn3nc(C4CC4)cc3C(F)(F)F)cc(=O)n12` [Example 16.2, 7-((3-cyclopropyl-5-(trifluoromethyl)-1H-pyrazol-1-yl)methyl)-N,2-dimethyl-5-oxo-5H-thiazolo[3,2-a]pyrimidine-3-carboxamide], for which the concentration giving a half-maximal response (EC50) is 11.7 µM and the Max % is recorded as 110%.

As for `CCNC(=O)c1c(C(F)(F)F)sc2nc(Cn3nc(C(F)(F)F)cc3C3CC3)cc(=O)n12` [Example 16.3, 7-((5-cyclopropyl-3-(trifluoromethyl)-1H-pyrazol-1-yl)methyl)-N-ethyl-5-oxo-2-(trifluoromethyl)-5H-thiazolo[3,2-a]pyrimidine-3-carboxamide], the EC50 is 1.4 µM and the Max % was determined as 160%.

As to `CCNC(=O)c1c(C(F)(F)F)sc2nc(Cn3nc(C4CC4)cc3C(F)(F)F)cc(=O)n12` [Example 16.4, 7-((3-cyclopropyl-5-(trifluoromethyl)-1H-pyrazol-1-yl)methyl)-N-ethyl-5-oxo-2-(trifluoromethyl)-5H-thiazolo[3,2-a]pyrimidine-3-carboxamide], the EC50 is 9.2 µM and the Max % was 130%.

Turning to `CCNC(=O)c1csc2nc(Cn3nc(C(F)(F)F)cc3C3CC3)cc(=O)n12` [Example 16.5, 7-((5-cyclopropyl-3-(trifluoromethyl)-1H-pyrazol-1-yl)methyl)-N-ethyl-5-oxo-5H-thiazolo[3,2-a]pyrimidine-3-carboxamide], the EC50 worked out at 10.6 µM and the Max % was found to be 149%.

In the case of `CCNC(=O)c1c(C2CC2)sc2nc(Cn3nc(C(F)(F)F)cc3C3CC3)cc(=O)n12` [Example 16.6, 2-cyclopropyl-7-((5-cyclopropyl-3-(trifluoromethyl)-1H-pyrazol-1-yl)methyl)-N-ethyl-5-oxo-5H-thiazolo[3,2-a]pyrimidine-3-carboxamide], the EC50 turned out to be 5.5 µM and the Max % is reported as 140%.

On to `CCNC(=O)c1c(C2CC2)sc2nc(Cn3nc(C4CC4)cc3C(F)(F)F)cc(=O)n12` [Example 16.7, 2-cyclopropyl-7-((3-cyclopropyl-5-(trifluoromethyl)-1H-pyrazol-1-yl)methyl)-N-ethyl-5-oxo-5H-thiazolo[3,2-a]pyrimidine-3-carboxamide], for which the EC50 amounted to 36.2 µM and the Max % amounted to 67.5%.

On to `Cc1sc2nc(Cn3ccc(C(F)(F)F)n3)cc(=O)n2c1C#N` [Example 17.1, 2-methyl-5-oxo-7-((3-(trifluoromethyl)-1H-pyrazol-1-yl)methyl)-5H-thiazolo[3,2-a]pyrimidine-3-carbonitrile], for which the Max % amounted to 107%.

Regarding `Cc1sc2nc(Cn3nc(C(F)(F)F)cc3C3CC3)cc(=O)n2c1C#N` [Example 17.2, 7-((5-cyclopropyl-3-(trifluoromethyl)-1H-pyrazol-1-yl)methyl)-2-methyl-5-oxo-5H-thiazolo[3,2-a]pyrimidine-3-carbonitrile], the EC50 was determined as 2 µM and the Max % turned out to be 119%.

As to `Cc1sc2nc(Cn3nc(C4CC4)cc3C(F)(F)F)cc(=O)n2c1C#N` [Example 17.3, 7-((3-cyclopropyl-5-(trifluoromethyl)-1H-pyrazol-1-yl)methyl)-2-methyl-5-oxo-5H-thiazolo[3,2-a]pyrimidine-3-carbonitrile], the Max % is 104%.

For `Cc1sc2nc(Cn3ccc(C(F)(F)F)n3)cc(=O)n2c1C(C)O` (stereo not drawn) [Example 18.1, 3-(1-hydroxyethyl)-2-methyl-7-((3-(trifluoromethyl)-1H-pyrazol-1-yl)methyl)-5H-thiazolo[3,2-a]pyrimidin-5-one], the Max % came to 94.8%.

As for `CC(=O)c1c(C)sc2nc(Cn3nc(C(F)(F)F)cc3C3CC3)cc(=O)n12` [Example 18.2, 3-acetyl-7-((5-cyclopropyl-3-(trifluoromethyl)-1H-pyrazol-1-yl)methyl)-2-methyl-5H-thiazolo[3,2-a]pyrimidin-5-one], the EC50 was 2.2 µM and the Max % is recorded as 144%.

Consider `CC(=O)c1c(C)sc2nc(Cn3nc(C4CC4)cc3C(F)(F)F)cc(=O)n12` [Example 18.3, 3-acetyl-7-((3-cyclopropyl-5-(trifluoromethyl)-1H-pyrazol-1-yl)methyl)-2-methyl-5H-thiazolo[3,2-a]pyrimidin-5-one], for which the EC50 is 25.4 µM and the Max % came out at 129%.

For `Cc1sc2nc(Cn3ccc(C(F)(F)F)n3)cc(=O)n2c1C(C)(C)O` [Example 18.4, 3-(2-hydroxypropan-2-yl)-2-methyl-7-((3-(trifluoromethyl)-1H-pyrazol-1-yl)methyl)-5H-thiazolo[3,2-a]pyrimidin-5-one], the Max % turned out to be 127%.

`Cc1sc2nc(Cn3nc(C)c4cc(F)ccc43)cc(=O)n2c1C(C)O` (stereo not drawn) [Example 18.5, 7-((5-fluoro-3-methyl-1H-indazol-1-yl)methyl)-3-(1-hydroxyethyl)-2-methyl-5H-thiazolo[3,2-a]pyrimidin-5-one]: the Max % is recorded as 40.7%.

Take `Cc1sc2nc(C(C)n3nc(C(F)(F)F)cc3C3CC3)cc(=O)n2c1C1(C)CC1CO` (stereo not drawn) [Example 19.2, 7-(1-(5-cyclopropyl-3-(trifluoromethyl)-1H-pyrazol-1-yl)ethyl)-3-(2-(hydroxymethyl)-1-methylcyclopropyl)-2-methyl-5H-thiazolo[3,2-a]pyrimidin-5-one]: the Max % is given as 64.2%.

For the compound `Cc1sc2nc(Cc3cccc(C#N)c3)cc(=O)n2c1C1CC1CO` (stereo not drawn) [Example 20.1, 3-((3-(trans-2-(hydroxymethyl)cyclopropyl)-2-methyl-5-oxo-5H-thiazolo[3,2-a]pyrimidin-7-yl)methyl)benzonitrile], the EC50 came out at 3.1 µM and the Max % is given as 137%.
